# Measurements taken from patent US10947389B2, “Composition, film, near infrared cut filter, laminate, pattern forming method, solid image pickup element, image display device, infrared sensor, and color filter” (FUJIFILM Corporation, priority 2016, dated 2021).
# Legend:
# [1] = Evaluation of absorption maximum and absorbance ratio (500 nm/λmax) in solution; assay type: physicochemical; settings: for Absorbance Ratio (500 nm/λmax) / Absorption Maximum (nm): solvent chloroform
# Text: In this specification, “having an absorption maximum in a wavelength range of 650 to 1000 nm” denotes having a maximum absorbance in a wavelength range of 650 to 1000 nm in an absorption spectrum of the near infrared absorbing compound in a solution. Examples of a measurement solvent used for the measurement of the absorption spectra of the near infrared absorbing compound in the solution include chloroform, methanol, dimethyl sulfoxide, ethyl acetate, and tetrahydrofuran. In the case of a compound which is soluble in chloroform, chloroform is used as the measurement solvent. In the case of a compound which is not soluble in chloroform, methanol is used. In addition, In the case of a compound which is not soluble in chloroform and methanol, dimethyl sulfoxide is used.
# Each of the compounds was dissolved in a measurement solvent shown in the following tables (concentration: 2.5×10^−6 mol/L) to measure an absorption spectrum (optical path length: 10 mm).
# In addition, an absorbance ratio (500 nm/λmax) as a value obtained by dividing an absorbance at a wavelength of 500 nm by an absorbance at an absorption maximum was evaluated based on the following criteria.
# A: the absorbance ratio (500 nm/λmax) was 0.04 or lower
# B: the absorbance ratio (500 nm/λmax) was higher 0.04 and 0.08 or lower
# C: the absorbance ratio (500 nm/λmax) was higher than 0.08
# [2] = Evaluation of solubility in water at 23° C.; assay type: physicochemical; settings: stirred for 1 hour
# Protocol: Each of the compounds was added to water at 23° C. under the atmospheric pressure, the components were stirred for 1 hour, and the solubility of the compound in water was obtained. The solubility of the compound was evaluated based on the following criteria.
# A: the solubility in water at 23° C. was 0.1 mass % or lower
# B: the solubility in water at 23° C. was higher than 0.1 mass % and 1 mass % or lower
# C: the solubility in water at 23° C. was higher than 1 mass %
smiles,measurement,setting,value
CC(C)CCCCCCCC(CCCCCC(C)C)COc1ccc(-c2c3c(=C(C#N)c4cnc5cc(Cl)c(Cl)cc5n4)n(B(c4ccccc4)c4ccccc4)c(-c4ccc(OCC(CCCCCCCC(C)C)CCCCCC(C)C)cc4)c3c(=C(C#N)c3cnc4cc(Cl)c(Cl)cc4n3)n2B(c2ccccc2)c2ccccc2)cc1 (centres unmarked) [III-167],Absorbance Ratio (500 nm/λmax),[1],A (the absorbance ratio (500 nm/λmax) was 0.04 or lower)
same,Absorption Maximum (nm),[1],885 nm
same,Solubility,[2],A (the solubility in water at 23 °C was 0.1 mass % or lower)
CC(CCC(COc1ccc(-c2c3/c(=C(\C#N)c4cnc5cc(Cl)c(Cl)cc5n4)n(B(c4ccccc4)c4ccccc4)c(-c4ccc(OCC(CCC(C)CC(C)(C)C)C(C)CC(C)(C)C)cc4)c3/c(=C(\C#N)c3cnc4cc(Cl)c(Cl)cc4n3)n2B(c2ccccc2)c2ccccc2)cc1)C(C)CC(C)(C)C)CC(C)(C)C (centres unmarked) [III-168],Absorbance Ratio (500 nm/λmax),[1],A (the absorbance ratio (500 nm/λmax) was 0.04 or lower)
same,Absorption Maximum (nm),[1],885 nm
same,Solubility,[2],A (the solubility in water at 23 °C was 0.1 mass % or lower)
Cc1cc2ncc(/C(C#N)=c3/c4c(-c5cccc(OCC(CCC(C)CC(C)(C)C)C(C)CC(C)(C)C)c5)n(B(c5ccccc5)c5ccccc5)/c(=C(/C#N)c5cnc6cc(C)c(C)cc6n5)c4c(-c4cccc(OCC(CCC(C)CC(C)(C)C)C(C)CC(C)(C)C)c4)n3B(c3ccccc3)c3ccccc3)nc2cc1C (centres unmarked) [III-328],Absorbance Ratio (500 nm/λmax),[1],A (the absorbance ratio (500 nm/λmax) was 0.04 or lower)
same,Absorption Maximum (nm),[1],872 nm
same,Solubility,[2],A (the solubility in water at 23 °C was 0.1 mass % or lower)
CC(CCC(COc1cccc(-c2c3/c(=C(\C#N)c4ccc5ccccc5n4)n(B(c4ccccc4)c4ccccc4)c(-c4cccc(OCC(CCC(C)CC(C)(C)C)C(C)CC(C)(C)C)c4)c3/c(=C(\C#N)c3ccc4ccccc4n3)n2B(c2ccccc2)c2ccccc2)c1)C(C)CC(C)(C)C)CC(C)(C)C (centres unmarked) [III-358],Absorbance Ratio (500 nm/λmax),[1],A (the absorbance ratio (500 nm/λmax) was 0.04 or lower)
same,Absorption Maximum (nm),[1],814 nm
same,Solubility,[2],A (the solubility in water at 23 °C was 0.1 mass % or lower)
Cc1ccc2oc(/C(C#N)=c3/c4c(-c5cccc(OCC(CCC(C)CC(C)(C)C)C(C)CC(C)(C)C)c5)n(B5Oc6ccccc6O5)/c(=C(/C#N)c5nc6ccccc6s5)c4c(-c4cccc(OCC(CCC(C)CC(C)(C)C)C(C)CC(C)(C)C)c4)n3B3Oc4ccccc4O3)nc2c1 (centres unmarked) [IV-92],Second Near Infrared Absorbing Compound λmax (nm),[1]; absorption maximum of the second near infrared absorbing compound,702 nm
same,λmax (nm) of Second Near Infrared Absorbing Compound,[1]; as listed in Table 58,701 nm
same,Absorbance Ratio (500 nm/λmax),[1],A (the absorbance ratio (500 nm/λmax) was 0.04 or lower)
same,Absorption Maximum (nm),[1],701 nm
same,Solubility,[2],A (the solubility in water at 23 °C was 0.1 mass % or lower)
CC(CCC(COc1cccc(-c2[nH]/c(=C(/C#N)c3cnc4ccccc4n3)c3c(-c4cccc(OCC(CCC(C)CC(C)(C)C)C(C)CC(C)(C)C)c4)[nH]/c(=C(/C#N)c4cnc5ccccc5n4)c23)c1)C(C)CC(C)(C)C)CC(C)(C)C (centres unmarked) [PP-1],Absorbance Ratio (500 nm/λmax),[1],B (the absorbance ratio (500 nm/λmax) was higher 0.04 and 0.08 or lower)
same,Absorption Maximum (nm),[1],739 nm
same,Solubility,[2],A (the solubility in water at 23 °C was 0.1 mass % or lower)
